Here are results for 27 molecules from ChEMBL document CHEMBL1154659, “Discovery and optimization of chromenotriazolopyrimidines as potent inhibitors of the mouse double minute 2-tumor protein 53 protein-protein interaction” (J Med Chem, 2009).

In general, IC50 refers to the midpoint of a concentration-inhibition curve.

The subject of test [1] is HCT-116. Nature of the test: Inhibition of human p53 deficient HCT116 cell proliferation after 16 hrs by BrdU assay. The test is classed as functional, cell-based.
Test [2] concerns HCT-116. Description: Inhibition of human HCT116 cell proliferation after 16 hrs by BrdU assay. The test is classed as functional, cell-based. For orientation: Incorporation of labelled thymidine or its analogues reports DNA synthesis.
Test [3] deals with SJSA-1. Description: Induction of apoptosis in human SJSA1 cells assessed as caspase 3/7 activity after 48 hrs. It is filed as functional, cell-based.
Test [4] concerns HCT-116. Description: Induction of p21 mRNA in human HCT116 cells by RT-PCR. The test is classed as functional, cell-based.
Test [5] relates to HCT-116. Description: Inhibition of human p21 deficient HCT116 cell proliferation after 16 hrs by BrdU assay. The test is classed as functional, cell-based.
Test [6] concerns the target Tumour suppressor p53/oncoprotein Mdm2 (Homo sapiens, UniProt Q00987). Description: Inhibition of human MDM2/P53 interaction by HTRF assay. It is filed as protein assay. (In general: TR-FRET usually uses a lanthanide donor and a delayed reading to cut background.)

Active and inactive are the calls of the source. No cut-off for these calls is given here.

Sequence of Tumour suppressor p53/oncoprotein Mdm2 (P04637 whole entry): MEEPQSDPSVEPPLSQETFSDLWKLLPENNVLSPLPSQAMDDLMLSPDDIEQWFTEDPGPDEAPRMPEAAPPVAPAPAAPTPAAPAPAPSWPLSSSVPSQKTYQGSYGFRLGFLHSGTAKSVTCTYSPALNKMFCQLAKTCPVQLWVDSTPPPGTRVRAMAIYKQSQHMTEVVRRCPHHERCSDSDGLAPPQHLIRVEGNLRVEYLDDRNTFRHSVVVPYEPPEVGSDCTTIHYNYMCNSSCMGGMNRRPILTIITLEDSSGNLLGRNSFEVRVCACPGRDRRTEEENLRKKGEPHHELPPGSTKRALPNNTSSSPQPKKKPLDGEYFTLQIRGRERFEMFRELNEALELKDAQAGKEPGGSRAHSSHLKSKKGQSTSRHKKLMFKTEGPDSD
Sequence of Tumour suppressor p53/oncoprotein Mdm2 (Q00987 whole entry): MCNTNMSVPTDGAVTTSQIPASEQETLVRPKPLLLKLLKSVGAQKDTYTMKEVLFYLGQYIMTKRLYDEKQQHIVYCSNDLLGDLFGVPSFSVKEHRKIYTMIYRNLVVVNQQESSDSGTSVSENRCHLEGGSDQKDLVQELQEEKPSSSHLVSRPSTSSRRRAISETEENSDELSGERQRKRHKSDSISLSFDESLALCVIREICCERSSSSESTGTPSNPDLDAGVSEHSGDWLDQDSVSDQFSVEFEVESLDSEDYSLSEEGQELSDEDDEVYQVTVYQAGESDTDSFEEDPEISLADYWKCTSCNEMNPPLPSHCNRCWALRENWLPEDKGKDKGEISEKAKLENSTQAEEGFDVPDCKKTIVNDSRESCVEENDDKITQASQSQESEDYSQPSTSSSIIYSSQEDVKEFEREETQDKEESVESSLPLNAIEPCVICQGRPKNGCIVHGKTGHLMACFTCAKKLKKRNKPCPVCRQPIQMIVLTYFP

Take `COc1ccc(C2=N[C@@H](c3ccc(Cl)cc3)[C@@H](c3ccc(Cl)cc3)N2C(=O)N2CCNC(=O)C2)c(OC(C)C)c1`: the result in test [1] and in test [5] was inactive. In addition, the result in test [2] was Active. For the same molecule, the Activity entry in test [3] and in test [4] was “Dose-dependent effect” throughout.

The molecule `COc1c(C)ccc2c1C1=C(C(c3ccc(Br)cc3)O2)C(c2ccc(Br)cc2)n2ncnc2N1C` (racemic) returned an IC50 in test [6] of 3940 nM. Still for that read-out and setting: as for `CN1C2=C(C(c3ccc(Br)cc3)Oc3cccc(F)c32)C(c2ccc(Br)cc2)n2ncnc21` (racemic), the figure is 1720 nM; as for `CN1C2=C(C(c3ccc(Br)cc3)Oc3ccc(Cl)cc32)C(c2ccc(Br)cc2)n2ncnc21` (racemic), 1400 nM; as for `CN1C2=C(C(c3ccc(Br)cc3)Oc3ccccc32)C(c2ccc(F)cc2)n2ncnc21` (racemic), 1880 nM.

Turning to `CN1C2=C(C(c3ccc(Br)cc3)Oc3ccc(C#N)cc32)C(c2ccc(Br)cc2)n2ncnc21` (racemic), the midpoint of inhibition in test [6], the IC50, lay at 3060 nM. This IC50 is about 1.6-fold higher than that of the molecule before. Still for that read-out and setting: the result for `CN1C2=C(C(c3ccc(C#N)cc3)Oc3ccccc32)C(c2ccc(Br)cc2)n2ncnc21` (racemic) reads 2080 nM; that for `CN1C2=C(C(c3ccc(Br)cc3)Oc3ccc(F)cc32)C(c2ccc(Br)cc2)n2ncnc21` (racemic), 1730 nM. Turning to `CN1C2=C(C(c3ccc(Br)cc3)Oc3cc(F)ccc32)C(c2ccc(Br)cc2)n2ncnc21` (racemic), in test [6], the 50% inhibitory concentration (IC50) came to 990 nM.

For `CN1C2=C(C(c3ccc(Br)cc3)Oc3c(Cl)cccc32)C(c2ccc(Br)cc2)n2ncnc21` (racemic), in test [6], the IC50 is 3500 nM. Same read-out and setting: the result for `CN1C2=C(C(c3ccc(F)cc3)Oc3ccccc32)C(c2ccc(Br)cc2)n2ncnc21` (racemic) reads 6570 nM; that for `CN1C2=C(C(c3ccc(Cl)cc3)Oc3ccccc32)C(c2ccc(Br)cc2)n2ncnc21` (racemic), 890 nM; that for `CCc1ccc2c(c1)C1=C(C(c3ccc(Br)cc3)O2)C(c2ccc(Br)cc2)n2ncnc2N1C` (racemic), 3200 nM. Same read-out and setting: the result for `CN1C2=C(C(c3ccc(Br)cc3)Oc3ccccc32)C(c2ccc(C#N)cc2)n2ncnc21` (racemic) reads 5840 nM; that for `Cc1ccc(C2C3=C(c4ccccc4OC3c3ccc(Br)cc3)N(C)c3ncnn32)cc1` (racemic), 4740 nM; that for `CN1C2=C(C(c3ccc(Br)cc3)Oc3c(Cl)cc(Cl)cc32)C(c2ccc(Br)cc2)n2ncnc21` (racemic), over 100000 nM. The same measure, in the same setting: as for `CC#Cc1ccc(C2Oc3ccccc3C3=C2C(c2ccc(Br)cc2)n2ncnc2N3C)cc1` (racemic), the figure is 9070 nM; as for `Cc1ccc2c(c1)C1=C(C(c3ccc(Br)cc3)O2)C(c2ccc(Br)cc2)n2ncnc2N1C` (racemic), 440 nM; as for `CCOc1cccc2c1C1=C(C(c3ccc(Br)cc3)O2)C(c2ccc(Br)cc2)n2ncnc2N1C` (racemic), 910 nM. Turning to `CN1C2=C(C(c3ccc(F)cc3)Oc3ccccc32)C(c2ccc(F)cc2)n2ncnc21` (racemic), the IC50 in test [6] turned out to be 14800 nM.

As for `Cc1ccc(C2Oc3ccccc3C3=C2C(c2ccc(Br)cc2)n2ncnc2N3C)cc1` (racemic), 4630 nM corresponded to half-maximal inhibition in test [6] (IC50). Same read-out and setting: as for `CN1C2=C(C(c3ccc(Cl)cc3)Oc3ccccc32)C(c2ccc(Cl)cc2)n2ncnc21` (racemic), the figure is 1210 nM. On the same count and under the same terms, as for `CN1C2=C(C(c3ccc(Br)cc3)Oc3cc(Cl)ccc32)C(c2ccc(Br)cc2)n2ncnc21` (racemic), the figure is 15100 nM; as for `C#Cc1ccc(C2Oc3ccccc3C3=C2C(c2ccc(Br)cc2)n2ncnc2N3C)cc1` (racemic), 2470 nM. The same measure, in the same setting: the result for `Cc1cc2c(cc1F)OC(c1ccc(Br)cc1)C1=C2N(C)c2ncnn2C1c1ccc(Br)cc1` (racemic) reads 480 nM; that for `CCc1ccc(C2Oc3ccccc3C3=C2C(c2ccc(Br)cc2)n2ncnc2N3C)cc1` (racemic), over 100000 nM. Turning to `Cc1ccc2c(c1)C1=C(C(c3ccc(Br)cc3)O2)C(c2ccc(Br)cc2)n2ncnc2N1C` (single isomer, unassigned), the outcome in test [1] and in test [5] was inactive. Besides, in test [2], the result was Active. Besides, the Activity result in test [3] and in test [4] was “Dose-dependent effect” throughout.
